From patent publication US20230374015A1, “INHIBITORS OF FIBROBLAST GROWTH FACTOR RECEPTOR KINASES” (Kinnate Biopharma Inc., priority 2020, published 2023)

target: FGFR2 (Homo sapiens, UniProt P21802); assay: FGFR2 Kinase Protocol - Condition 2 (Reaction Biology HotSpot radiometric kinase assay, no preincubation); format: biochemical; conditions: poly[Glu:Tyr] (4:1) 0.2 mg/ml, ATP 100 microM, 2 hr room temperature
Protocol: Example 2: FGFR2 Kinase Protocol—Condition 2
The Reaction Biology HotSpot assay platform (http://www.reactionbiology.com) was used to measure kinase/inhibitor interactions as described previously (Anastassiadis et al., 2011). In brief, for each reaction, kinase and substrate were mixed in a buffer containing 20 mM HEPES (pH 7.5), 10 mM MgCl2, 1 mM EGTA, 0.02% Brij35, 0.02 mg/mL BSA, 0.1 mM Na3VO4, 2 mM DTT, and 1% DMSO. All compounds were in powder form and freshly solubilized in DMSO for assays. Compounds were then added to each reaction mixture via acoustic dispense using an ECHO 550 nanoliter dispenser. For Human FGFR2 wildtype testing, a peptide substrate, poly[Glu:Tyr] (4:1) was used to promote the reaction at a concentration of 0.2 mg/ml. For Human FGFR2 (V564F) testing, a peptide substrate, poly[Glu:Tyr] (4:1) was used to promote the reaction at a concentration of 0.2 mg/ml. ATP concentration for all assays was maintained at 100 micromolar. Compounds were tested in 10-dose IC50 mode with a 3-fold serial dilution. Compounds were added to plates and ATP was added directly to the wells. ATP (Sigma-Aldrich, St. Louis, MO 63178) and [g33P] ATP (specific activity 10 microCi/microliter) purchased at PerkinElmer (Boston, MA, 02118 Cat #BLU 003H250UC) were added at a final total concentration of 100 microM to each well with no preincubation. Reactions were carried out at room temperature for 2 hr and spotted onto P81 ion exchange cellulose chromatography paper (Reaction Biology). Filter paper was washed in 0.75% phosphoric acid to remove unincorporated ATP. The percent remaining kinase activity relative to a vehicle-containing (DMSO) kinase reaction was calculated for each kinase/inhibitor pair. IC50 values were calculated using Dotmatics Knowledge Solutions Studies curve fitting (Dotmatics, Bishops Stortford, UK, CM23).

Sequence of FGFR2 (P21802 22-821): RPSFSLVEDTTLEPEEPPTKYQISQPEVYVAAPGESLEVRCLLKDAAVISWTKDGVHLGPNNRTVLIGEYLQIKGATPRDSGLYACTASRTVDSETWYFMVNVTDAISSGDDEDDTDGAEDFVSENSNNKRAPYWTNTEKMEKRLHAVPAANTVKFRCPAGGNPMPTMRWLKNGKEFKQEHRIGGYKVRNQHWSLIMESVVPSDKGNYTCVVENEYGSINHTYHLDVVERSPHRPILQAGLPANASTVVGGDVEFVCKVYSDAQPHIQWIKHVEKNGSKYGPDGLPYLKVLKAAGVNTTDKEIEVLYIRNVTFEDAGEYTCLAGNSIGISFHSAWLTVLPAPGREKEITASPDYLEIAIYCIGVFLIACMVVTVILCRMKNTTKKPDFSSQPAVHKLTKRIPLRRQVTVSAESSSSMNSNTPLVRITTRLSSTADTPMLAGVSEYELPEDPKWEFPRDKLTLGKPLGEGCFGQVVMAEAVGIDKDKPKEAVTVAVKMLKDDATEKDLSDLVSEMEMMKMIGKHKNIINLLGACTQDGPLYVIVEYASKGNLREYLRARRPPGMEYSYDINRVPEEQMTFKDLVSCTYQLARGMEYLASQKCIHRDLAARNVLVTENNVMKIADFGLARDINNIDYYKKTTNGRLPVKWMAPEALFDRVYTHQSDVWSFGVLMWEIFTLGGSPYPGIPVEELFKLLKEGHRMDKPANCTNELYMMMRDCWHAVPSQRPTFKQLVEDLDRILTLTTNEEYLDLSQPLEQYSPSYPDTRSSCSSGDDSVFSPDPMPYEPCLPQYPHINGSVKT

IC50, ≤ 100 nM:
C=CC(=O)N1C[C@@H](n2nc(C#Cc3cc4nc(C)[nH]c4cc3Cl)c3c(N)ncnc32)C[C@@H]1COC [Example 99, 1-[(2R,4S)-4-[4-Amino-3-[2-(6-chloro-2-methyl-1H-1,3-benzodiazol-5-yl)ethynyl]pyrazolo[3,4-d]pyrimidin-1-yl]-2-(methoxymethyl)pyrrolidin-1-yl]prop-2-en-1-one]
C=CC(=O)N1C[C@@H](n2nc(C#Cc3cc4ncn(CC)c4c(F)c3F)c3c(N)ncnc32)C[C@@H]1CC#N [Example 157, 2-[(2R,4S)-4-{4-Amino-3-[2-(1-ethyl-6,7-difluoro-1,3-benzodiazol-5-yl)ethynyl]pyrazolo[3,4-d]pyrimidin-1-yl}-1-(prop-2-enoyl)pyrrolidin-2-yl]acetonitrile]
C=CC(=O)N1C[C@@H](n2nc(C#Cc3c(F)cc4c(cnn4C)c3F)c3c(N)ncnc32)C[C@@H]1COC [Example 48, 1-((2R,4S)-4-(4-amino-3-((4,6-difluoro-1-methyl-1H-indazol-5-yl)ethynyl)-1H-pyrazolo[3,4-d]pyrimidin-1-yl)-2-(methoxymethyl)pyrrolidin-1-yl)prop-2-en-1-one]
C=CC(=O)N1C[C@@H](n2nc(C#Cc3c(Cl)cc4c(nc(C)n4C)c3F)c3c(N)ncnc32)C[C@@H]1COC [Example 102, 1-((2R,4S)-4-(4-Amino-3-((6-chloro-4-fluoro-1,2-dimethyl-1H-benzo[d]imidazol-5-yl)ethynyl)-1H-pyrazolo[3,4-d]pyrimidin-1-yl)-2-(methoxymethyl)pyrrolidin-1-yl)prop-2-en-1-one]
C=CC(=O)N1CC[C@H](n2nc(C#Cc3cc4ncn(CC)c4c(F)c3F)c3c(N)nccc32)C1 [Example 155, 1-[(3S)-3-{4-Amino-3-[2-(1-ethyl-6,7-difluoro-1,3-benzodiazol-5-yl)ethynyl]pyrazolo[4,3-c]pyridin-1-yl}pyrrolidin-1-yl]prop-2-en-1-one]
C=CC(=O)N1C[C@@H](n2nc(C#Cc3cc4nc(C)[nH]c4cc3Cl)c3c(N)nccc32)C[C@@H]1COC [Example 100, 1-[(2R,4S)-4-[4-Amino-3-[2-(6-chloro-2-methyl-1H-1,3-benzodiazol-5-yl)ethynyl]pyrazolo[4,3-c]pyridin-1-yl]-2-(methoxymethyl)pyrrolidin-1-yl]prop-2-en-1-one]
C=CC(=O)N1CC[C@H](n2nc(C#Cc3cc4ncn(C)c4cc3F)c3c(N)nccc32)C1 [Example 141, 1-[(3S)-3-{4-Amino-3-[2-(6-fluoro-1-methyl-1,3-benzodiazol-5-yl)ethynyl]pyrazolo[4,3-c]pyridin-1-yl}pyrrolidin-1-yl]prop-2-en-1-one]
C=CC(=O)N1C[C@@H](n2nc(C#Cc3cc4nc(C)n(C(F)F)c4cc3Cl)c3c(N)ncnc32)C[C@@H]1COC [Example 129, 1-[(2R,4S)-4-(4-Amino-3-{2-[6-chloro-1-(difluoromethyl)-2-methyl-1,3-benzodiazol-5-yl]ethynyl}pyrazolo[3,4-d]pyrimidin-1-yl)-2-(methoxymethyl)pyrrolidin-1-yl]prop-2-en-1-one]
C=CC(=O)N1CC[C@H](n2nc(C#Cc3ccc4c(c3)ncn4C3CC3)c3c(N)ncnc32)C1 [Example 193, 1-[(3S)-3-{4-Amino-3-[2-(1-cyclopropyl-1,3-benzodiazol-5-yl)ethynyl]pyrazolo[3,4-d]pyrimidin-1-yl}pyrrolidin-1-yl]prop-2-en-1-one]
C=CC(=O)N1C[C@@H](n2nc(C#Cc3cc4ncn(CC)c4cc3Cl)c3c(N)nccc32)C[C@@H]1C [Example 169, 1-((2S,4S)-4-(4-amino-3-((6-chloro-1-ethyl-1H-benzo[d]imidazol-5-yl)ethynyl)-1H-pyrazolo[4,3-c]pyridin-1-yl)-2-methylpyrrolidin-1-yl)prop-2-en-1-one]
C=CC(=O)N1C[C@@H](n2nc(C#Cc3cc4ncn(CC)c4cc3Cl)c3c(N)ncnc32)C[C@@H]1COC [Example 92, 1-[(2R,4S)-4-[4-Amino-3-[2-(6-chloro-1-ethyl-1,3-benzodiazol-5-yl)ethynyl]pyrazolo[3,4-d]pyrimidin-1-yl]-2-(methoxymethyl)pyrrolidin-1-yl]prop-2-en-1-one]
C=CC(=O)N1C[C@@H](n2nc(C#Cc3cc4ncn(C5CC5)c4cc3F)c3c(N)ncnc32)C[C@@H]1CF [Example 197, 1-((2R,4S)-4-(4-Amino-3-((1-cyclopropyl-6-fluoro-1H-benzo[d]imidazol-5-yl)ethynyl)-1H-pyrazolo[3,4-d]pyrimidin-1-yl)-2-(fluoromethyl)pyrrolidin-1-yl)prop-2-en-1-one]
C=CC(=O)N1C[C@@H](n2cc(C#Cc3c(Cl)cc4c(nc(C)n4C)c3F)c3c(N)ncnc32)C[C@@H]1COC [Example 113, 1-((2R,4S)-4-(4-Amino-5-((6-chloro-4-fluoro-1,2-dimethyl-1H-benzo[d]imidazol-5-yl)ethynyl)-7H-pyrrolo[2,3-d]pyrimidin-7-yl)-2-(methoxymethyl)pyrrolidin-1-yl)prop-2-en-1-one]
C=CC(=O)N1C[C@@H](n2nc(C#Cc3c(Cl)cc4c(ncn4C)c3F)c3c(N)nccc32)C[C@@H]1COC [Example 105, 1-[(2R,4S)-4-[4-Amino-3-[2-(6-chloro-4-fluoro-1-methyl-1,3-benzodiazol-5-yl)ethynyl]pyrazolo[4,3-c]pyridin-1-yl]-2-(methoxymethyl)pyrrolidin-1-yl]prop-2-en-1-one]
C=CC(=O)N1C[C@@H](n2nc(C#Cc3cc4ncn(CC)c4cc3Cl)c3c(N)nccc32)C[C@@H]1COC [Example 88, 1-[(2R,4S)-4-[4-Amino-3-[2-(6-chloro-1-ethyl-1,3-benzodiazol-5-yl)ethynyl]pyrazolo[4,3-c]pyridin-1-yl]-2-(methoxymethyl)pyrrolidin-1-yl]prop-2-en-1-one]
C=CC(=O)N1C[C@@H](n2nc(C#Cc3c(F)cc4c(ncn4C)c3F)c3c(N)nccc32)C[C@@H]1COC(F)(F)F [Example 60, 1-[(2R,4S)-4-[4-Amino-3-[2-(4,6-difluoro-1-methyl-1,3-benzodiazol-5-yl)ethynyl]pyrazolo[4,3-c]pyridin-1-yl]-2-[(trifluoromethoxy)methyl]pyrrolidin-1-yl]prop-2-en-1-one]
C=CC(=O)N1C[C@@H](n2cc(C#Cc3cc4nc(C)n(C)c4cc3Cl)c3c(N)ncnc32)C[C@@H]1COC [Example 101, 1-[(2R,4S)-4-[4-Amino-5-[2-(6-chloro-1,2-dimethyl-1,3-benzodiazol-5-yl)ethynyl]pyrrolo[2,3-d]pyrimidin-7-yl]-2-(methoxymethyl)pyrrolidin-1-yl]prop-2-en-1-one]
C=CC(=O)N1C[C@@H](n2cc(C#Cc3c(F)cc4c(ncn4C4CC4)c3F)c3c(N)ncnc32)C[C@@H]1COC [Example 75, 1-[(2R,4S)-4-[4-Amino-5-[2-(1-cyclopropyl-4,6-difluoro-1,3-benzodiazol-5-yl)ethynyl]pyrrolo[2,3-d]pyrimidin-7-yl]-2-(methoxymethyl)pyrrolidin-1-yl]prop-2-en-1-one]
C=CC(=O)N1C[C@@H](n2nc(C#Cc3cc4ncn(C)c4cc3F)c3c(N)nccc32)C[C@@H]1CF [Example 185, 1-[(2R,4S)-4-{4-Amino-3-[2-(6-fluoro-1-methyl-1,3-benzodiazol-5-yl)ethynyl]pyrazolo[4,3-c]pyridin-1-yl}-2-(fluoromethyl)pyrrolidin-1-yl]prop-2-en-1-one]
C=CC(=O)N1C[C@@H](n2nc(C#Cc3cc4ncn(C)c4cc3F)c3c(N)nccc32)C[C@@H]1C [Example 165, 1-((2S,4S)-4-(4-amino-3-((6-fluoro-1-methyl-1H-benzo[d]imidazol-5-yl)ethynyl)-1H-pyrazolo[4,3-c]pyridin-1-yl)-2-methylpyrrolidin-1-yl)prop-2-en-1-one]
C=CC(=O)N1C[C@@H](n2nc(C#Cc3cc4ncn(C(F)F)c4cc3F)c3c(N)ncnc32)C[C@@H]1COC [Example 82, 1-[(2R,4S)-4-(4-Amino-3-[2-[1-(difluoromethyl)-6-fluoro-1,3-benzodiazol-5-yl]ethynyl]pyrazolo[3,4-d]pyrimidin-1-yl)-2-(methoxymethyl)pyrrolidin-1-yl]prop-2-en-1-one]
C=CC(=O)N1C[C@@H](n2cc(C#Cc3cc4ncn(C)c4cc3F)c3c(N)ncnc32)C[C@@H]1COC [Example 63, 1-[(2R,4S)-4-[4-Amino-5-[2-(6-fluoro-1-methyl-1,3-benzodiazol-5-yl)ethynyl]pyrrolo[2,3-d]pyrimidin-7-yl]-2-(methoxymethyl)pyrrolidin-1-yl]prop-2-en-1-one]
